Square brackets hold non-standard residues; d marks the D form. Peptide text beside a SMILES is read from it.
Columns and labels:
[1] = test system: sheep red blood cells (SRBCs)
A. baumannii ATCC 19606 [2] = test: murine skin abscess infection model; assay type: in vivo, mouse (female CD-1); details: after 4 days; single topical dose at MIC ([…] μM r(P)YLL19, 32 μM D(P)YLL19) 2 h postinfection; CFU of homogenized skin; n = 6
Experimental: Six-week-old female CD-1 mice (Charles River, stock number: 18679700-022) were anesthetized with isoflurane, and the dorsal skin was shaved. A superficial linear abrasion was made using a sterile needle. A 20 μL aliquot of A. baumannii ATCC 19606, grown in LB medium to an optical density at 600 nm (OD600) of 0.5 and then washed twice with sterile PBS (pH 7.4; 9391 g for 2 min), was applied to the abraded area at a final concentration of 3.67 × 10^6 CFU mL^-1. Peptides and antibiotics were diluted in sterile water to their respective MICs and topically applied to the infection site 2 h postinfection. Untreated control mice received 20 μL of sterile PBS. At 2 and 4 days postinfection, animals were euthanized, and the wounded infected skin area was aseptically and uniformly excised. Tissue was homogenized using a bead beater (25 Hz for 20 min), serially diluted 10-fold, and plated on MacConkey agar plates for CFU quantification. Each treatment group included six mice (n = 6), with mice housed individually to prevent cross-contamination. […] Two independent experiments were conducted, each with 3 mice per treatment group. Statistical significance was assessed using one-way ANOVA followed by Dunnett's post hoc test after log10 transformation of CFU counts.

[3] = test system: human immortalized keratinocytes (HaCaT); assay type: cell-based
Experimental: (§1) Cell viability remained above 70% even at the highest tested concentrations after 72 h of incubation.

[4] = test system: human epidermoid carcinoma cells (A431); assay type: cell-based; details: 72 h, 100 μM
Experimental: as §1

[5] = test system: human primary dermal fibroblasts (HDF); assay type: cell-based
Experimental: as §1

A. baumannii ATCC 19606 [6] = test: time-kill (killing kinetic) assay; assay type: cell-based; details: Fig 7D
[7] = test system: S. epidermidis ATCC 35984; test: time-kill (killing kinetic) assay; assay type: cell-based; details: Fig 7D

`CC[C@@H](C)[C@@H](NC(=O)[C@@H](CCCNC(=N)N)NC(=O)[C@@H](Cc1ccccc1)NC(=O)[C@H](NC(=O)[C@@H](CC(C)C)NC(=O)[C@@H](Cc1c[nH]cn1)NC(=O)[C@@H](CCCCN)NC(=O)[C@@H](CCCCN)NC(=O)[C@@H](CCCNC(=N)N)NC(=O)[C@@H](Cc1c[nH]c2ccccc12)NC(=O)[C@@H](CCCNC(=N)N)NC(=O)CNC(=O)[C@@H](CC(C)C)NC(=O)[C@@H](CC(C)C)NC(=O)[C@@H](CC(C)C)NC(=O)[C@@H](Cc1ccc(O)cc1)NC(=O)[C@H]1CCCN1)[C@H](C)O)C(=O)N[C@H](CC(C)C)C(=O)N[C@H](CC(N)=O)C(=O)N[C@H](CC(C)C)C(=O)O` [D(P)YLL19] (H-[dP][dY][dL][dL][dL]G[dR][dW][dR][dK][dK][dH][dL][dT][dF][dR][dI][dL][dN][dL]-OH; N-terminus and C-terminus assumed) was tested. Which hemolytic activity [1] did it give?
The hemolytic activity was “no hemolytic activity”.

And the “reduction in bacterial burden” value (A. baumannii ATCC 19606 [2])?
The value was 3 to 4 orders of magnitude.

And the reduction in viability [3]?
The reduction in viability was 25–30%.

What about the cell viability ([3]; 72 h, 100 μM) of the same compound?
Its cell viability is “above 70%”.

What about the cell viability [4] of the same compound?
Its cell viability is “above 70%”.

And the reduction in viability [5]?
The reduction in viability was 25–30%.

What about the cell viability ([5]; 72 h, 100 μM) of the same compound?
Its cell viability is “above 70%”.

And the “time to complete bacterial eradication, peptide combined with colistin” value (A. baumannii ATCC 19606 [6])?
Its value is ≤ 15 min.

What about the “time to complete bacterial eradication, peptide combined with colistin or polymyxin B” value [7] of the same compound?
Its value is ≤ 15 min.
